Measured values: patent US11559510B2, “Isoflavonoid composition with improved pharmacokinetics” (NOXOPHARM LIMITED, priority 2016, dated 2023)
Like-named read-outs stand apart in the source and are kept apart here.

Assay: Plasma pharmacokinetic studies of idronoxil in rats (rectal in cocoa butter vs intestinal in lipid emulsion)
Format: in vivo, Male Sprague-Dawley rats
Description: The objective of this study in rodents is to determine the plasma pharmacokinetics of idronoxil after rectal delivery and intestinal delivery in lipids (cocoa butter or emulsion).
Part (1); n=3 rats: Rectal administration of idronoxil in cocoa butter liquid formulation, collection of plasma.
Part (2); n=3 rats: Intestinal administration (intraduodenal infusion) of idronoxil in lipid formulation, collection of plasma.
3 mg idronoxil per rat (equivalent to 10 mg/kg idronoxil).
Preparation of lipid formulation for intestinal dosing: Briefly, 3 mg of idronoxil, 80 mg oleic acid and 50 mg Tween 80 were mixed in a glass vial as the lipid phase. An aqueous phase consisting of 5.6 mL phosphate buffered saline (PBS, pH 7.4) was subsequently added to the lipid phase and the formulation emulsified by ultrasonication with a Misonix XL 2020 ultrasonic processor equipped with a 3.2-mm microprobe tip running at an amplitude of 240 μm and a frequency of 20 kHz for 4 min at room temperature.
Dose administration: The lipid formulations were infused into the duodenum of the rats at 2.8 mL/h for 2 h. After that, normal saline was infused into the duodenum at 2.8 mL/h for the remainder of the experiment to hydrate the animals.
Preparation of cocoa butter formulation for rectal dosing: Briefly, 100 mg of the cocoa butter was weighed into a homogenizer glass tube and melted at 32 degrees Celsius. 3 mg of idronoxil was then added and the formulation mixed manually with the homogenizer.
Dose administration: The warmed/melted cocoa butter formulations were dosed into the rectum via placing the tip of a 3 cm plastic mouse oral gavage device attached to a 1 ml plastic syringe exactly 1 cm into the rectum. The formulation was dosed over 15 sec. After that, normal saline was infused into the duodenum at 2.8 mL/h for the remainder of the experiment to hydrate the animals.
Male Sprague-Dawley rats (n=3 per group, body weight 300±40 g) were used in the study. Each animal was fasted overnight prior to surgical cannulation of the carotid artery and duodenum.
The rats were anaesthetized (using isoflurane anesthesia), placed on a heated pad at 37° C. and cannulas were inserted into the duodenum (for dosing of lipid formulation and rehydration) and carotid artery (for blood collection).
Post-surgery, rats were re-hydrated for 0.5 h via intraduodenal infusion of normal saline at 2.8 mL/h prior to dosing via intraduodenal or rectal route.
Plasma collection: Plasma samples were collected for 8 h into Eppendorf tubes containing 5 μL of 1,000 IU/mL heparin. Aliquots (20 μL) of each hourly collected samples were transferred into labelled 1.5 mL Eppendorf tubes. Aliquoted and original bulk samples were stored at −20° C. until analysis.
Sample analysis: Plasma concentrations of idronoxil were measured by the HMST-lab using a validated HPLC-MS/MS method. Briefly, LC-MS analysis was performed on a Shimadzu 8050 triple quadrupole mass spectrometer coupled with a Shimadzu Nexera X2 UHPLC. MS analysis was conducted in positive mode electrospray ionisation and quantitation of the analytes performed in MRM mode. The column employed was a Phenomenex Kinetex EVO C18 column (2.6 μm particle size, 50×2.1 mm i.d.) equipped with a Phenomenex Security Guard column with C18 packing material. The column was maintained at 40-C. The mobile phase consisted of 0.2% formic acid in water (Mobile Phase A) and 100% acetonitrile (Mobile Phase B). Separations were conducted using a flow rate of 0.4 mL/min and an injection volume of 6 μL. Samples were controlled in the autosampler at a temperature of 10° C.
Non-compartmental pharmacokinetic (PK) analysis: The elimination rate constant (slope), half-life (i.e., 0.693/k), and mean residence time (MRT) were calculated using excel. The area under the plasma-concentration time curves from time zero to 8 h (AUC0-8 h) were calculated using the trapezoid rule to the last measured time point.

[1] = male, Sprague-Dawley, rat, plasma, other: intraduodenal infusion, 10 mg/kg, Intestinal delivery (intraduodenal infusion), lipid emulsion, 10 mg/kg, read-out: Idronoxil Plasma Concentration Rat 2
[2] = male, Sprague-Dawley, rat, plasma, other: intraduodenal infusion, 10 mg/kg, Intestinal delivery (intraduodenal infusion), lipid emulsion, 10 mg/kg, read-out: Idronoxil Plasma Concentration Rat 3
[3] = male, Sprague-Dawley, rat, plasma, other: intraduodenal infusion, 10 mg/kg, Intestinal delivery (intraduodenal infusion), lipid emulsion, 10 mg/kg, read-out: Idronoxil Plasma Concentration Mean
[4] = male, Sprague-Dawley, rat, plasma, other: intraduodenal infusion, 10 mg/kg, Intestinal delivery (intraduodenal infusion), lipid emulsion, 10 mg/kg, read-out: Idronoxil Plasma Concentration Rat 1
[5] = male, Sprague-Dawley, rat, plasma, other: rectal, 10 mg/kg, Rectal delivery, cocoa butter, 10 mg/kg, read-out: Idronoxil Plasma Concentration Mean
[6] = male, Sprague-Dawley, rat, plasma, other: rectal, 10 mg/kg, Rectal delivery, cocoa butter, 10 mg/kg, read-out: Idronoxil Plasma Concentration Rat 1
[7] = male, Sprague-Dawley, rat, plasma, other: rectal, 10 mg/kg, Rectal delivery, cocoa butter, 10 mg/kg, read-out: Idronoxil Plasma Concentration Rat 2
[8] = male, Sprague-Dawley, rat, plasma, other: rectal, 10 mg/kg, Rectal delivery, cocoa butter, 10 mg/kg, read-out: Idronoxil Plasma Concentration Rat 3
[9] = oral delivery (intestinal delivery model)

## Oc1ccc(C2=Cc3ccc(O)cc3OC2)cc1 [Idronoxil, 2H-1-Benzopyran-7-0,1,3-(4-hydroxyphenyl)]
[1]
  concentration at 2 h: 140 ng/mL
  concentration at 3 h: 38.2 ng/mL
  concentration at 4 h: 7.03 ng/mL
  concentration at 5 h: 4.46 ng/mL
  concentration at 6 h: 3.79 ng/mL
  concentration at 7 h: 6.75 ng/mL
  concentration at 8 h: 4.23 ng/mL
[2]
  concentration at 2 h: 136 ng/mL
  concentration at 3 h: 16.8 ng/mL
  concentration at 4 h: 5.62 ng/mL
  concentration at 5 h: 6 ng/mL
  concentration at 6 h: 7.72 ng/mL
  concentration at 7 h: 3.7 ng/mL
  concentration at 8 h: 3.37 ng/mL
[3]
  concentration at 3 h: 24.3 ng/mL
  concentration at 4 h: 9.57 ng/mL
  concentration at 5 h: 9.27 ng/mL
  concentration at 6 h: 4.79 ng/mL
  concentration at 7 h: 5.04 ng/mL
  concentration at 8 h: 5.14 ng/mL
[4]
  concentration at 3 h: 17.8 ng/mL
  concentration at 4 h: 16.1 ng/mL
  concentration at 5 h: 17.4 ng/mL
  concentration at 6 h: 2.86 ng/mL
  concentration at 7 h: 4.68 ng/mL
  concentration at 8 h: 7.83 ng/mL
male, Sprague-Dawley, rat, plasma, other: rectal, 10 mg/kg, Rectal delivery, cocoa butter, 10 mg/kg, 0 hr, read-out: Idronoxil Plasma Concentration Mean
  concentration at 0 h: 0 ng/mL
[5]
  concentration at 1 h: 49.4 ng/mL
  concentration at 2 h: 42.9 ng/mL
  concentration at 3 h: 37.3 ng/mL
  concentration at 4 h: 30.1 ng/mL
  concentration at 5 h: 46.3 ng/mL
  concentration at 6 h: 30.2 ng/mL
  concentration at 7 h: 25 ng/mL
  concentration at 8 h: 18.4 ng/mL
[6]
  concentration at 1 h: 26.7 ng/mL
  concentration at 2 h: 15.9 ng/mL
  concentration at 3 h: 15.9 ng/mL
  concentration at 4 h: 14.4 ng/mL
  concentration at 5 h: 27.9 ng/mL
  concentration at 6 h: 17.8 ng/mL
  concentration at 7 h: 20.6 ng/mL
  concentration at 8 h: 5.74 ng/mL
[7]
  concentration at 1 h: 96.5 ng/mL
  concentration at 2 h: 88.1 ng/mL
  concentration at 3 h: 74.2 ng/mL
  concentration at 4 h: 53.7 ng/mL
  concentration at 5 h: 71.4 ng/mL
  concentration at 6 h: 51.3 ng/mL
  concentration at 7 h: 43 ng/mL
  concentration at 8 h: 33.4 ng/mL
[8]
  concentration at 1 h: 24.9 ng/mL
  concentration at 2 h: 24.7 ng/mL
  concentration at 3 h: 21.8 ng/mL
  concentration at 4 h: 22.3 ng/mL
  concentration at 5 h: 39.5 ng/mL
  concentration at 6 h: 21.6 ng/mL
  concentration at 7 h: 11.4 ng/mL
  concentration at 8 h: 16.1 ng/mL
[9]
  time at which drug levels are sub-therapeutic: < 4 h
  time within which drug levels substantially fall: 2 to 3 h
rats, 10 mg/kg body weight, single rectal administration, up to 8 hours
  plasma concentration: 35 to 40 ng/mL
Rectal delivery
  time for which therapeutic levels of free idronoxil were maintained in the blood: at least 8 hours
Rectal vs oral
  half-life, rectal relative to oral idronoxil: at least 5 times
rectally-dosed rats
  time for which idronoxil levels remain almost constant (steady-state levels) post administration: at least 8 hours
